Laboratory results reported in US10301664B2, “Repurposing non-antimicrobial drugs and clinical molecules to treat bacterial infections” (Purdue Research Foundation, priority 2015, dated 2019).
≈ marks a conversion by molar mass, not a printed value. Like-named read-outs stand apart in the source and are kept apart here.

Legend:
[1] = cited from earlier work
[2] = system: Colistin resistant clinical isolates of P. aeruginosa; assay: MIC against G-ve with and without colistin: colistin resistant P. aeruginosa; format: cell-based; conditions: without colistin
S. Typhimurium = assay: MIC against G-ve with and without colistin: S. Typhimurium; format: cell-based
[3] = system: mitochondrial protein synthesis in J774A.1 cells; assay: Mitochondrial biogenesis in-cell ELISA (COX-I / SDH-A); format: cell-based; conditions: J774A.1 cells treated for three days
Excerpt: Due to concern about the possible mitochondrial toxicities associated with many antibacterial protein synthesis inhibitors such as linezolid and chloramphenicol, we tested the effect of Auranofin and Ebselen on mitochondrial protein synthesis directly within the mammalian cells.

[4] = system: MRSA (23) clinical isolates; assay: MIC against Gram +ve clinical isolates: MRSA; format: cell-based, S. aureus; conditions: for MIC50: MRSA (23)
MRSA USA300 = assay: Mouse model of MRSA systemic infection (lethal); format: in vivo, BALB/c mice; conditions: oral 30 mg/kg once daily, three doses
Excerpt: For MRSA systemic infection, neutropenic Female BALB/c mice were inoculated IP with 1×10^9 MRSA USA300.

P. aeruginosa = assay: MIC against G-ve with and without colistin: P. aeruginosa; format: cell-based; conditions: without colistin
[5] = system: VRE (14) clinical isolates; assay: MIC against Gram +ve clinical isolates: VRE; format: cell-based, enterococcus
A. baumannii = assay: MIC against G-ve with and without colistin: A. baumannii; format: cell-based
[6] = in vivo
E. cloacae ATCC BAA-1143 = assay: Library hits: MIC against E. cloacae; format: cell-based
[7] = system: A. baumannii ATCC BAA-1605; assay: Library hits: MIC against A. baumannii; format: cell-based
[8] = system: K. pneumoniae ATCC BAA-1705; assay: Library hits: MIC against K. pneumoniae; format: cell-based

Row | Structure (SMILES) | increase in selenium concentration in the blood ([1]; 30 mg/kg dose) | plasma concentration ([1]; 30 mg/kg dose) | clinically achievable blood concentration ([1]; in vivo) | MIC, colistin (−) [2] | MIC, colistin (+) (S. Typhimurium; with sub-inhibitory colistin 0.25 μg/ml) | MIC, colistin (−) (S. Typhimurium; without colistin) | inhibition of mitobiogenesis [3] | MIC50 ([4]; second column per drug) | MIC90 ([4]; Staphylococcus aureus, MRSA, read-out: MIC90 (MICs at which 90% of MRSA isolates were inhibited)) | MIC50 ([4]; Staphylococcus aureus, read-out: MIC50) | mice survival (MRSA USA300) | MIC, colistin (−) (P. aeruginosa) | MIC50 ([5]; Enterococcus, read-out: MIC50) | MIC50 ([5]; second column per drug) | MIC, colistin (+) (A. baumannii; with sub-inhibitory colistin 0.0625 μg/ml) | MIC, colistin (−) (A. baumannii; without colistin) | achieved plasma concentration after a therapeutic dose relative to required MIC90 against MRSA [6] | MIC/MBC (E. cloacae ATCC BAA-1143) | MIC/MBC [7] | MIC/MBC [8]
1 | O=c1c2ccccc2[se]n1-c1ccccc1 [Ebselen] | 0.84±0.1 mg/L^−1 | 2910 ng/mL | 2.91 µg/mL | >256 µg/mL | 0.0625 µg/mL (≈ 0.228 µM) | 32 µg/mL (≈ 117 µM) | less than 10% | 0.25 µg/mL (≈ 0.912 µM) | 0.25 µg/mL (≈ 0.912 µM) | 0.25 µg/mL (≈ 0.912 µM) | 60% | >256 µg/mL | 0.5 µg/mL (≈ 1.82 µM) | 0.5 µg/mL (≈ 1.82 µM) | 0.25 µg/mL (≈ 0.912 µM) | 16 µg/mL (≈ 58.4 µM) | – | – | – | –
2 | O=c1[nH]c(=O)n([C@H]2C[C@H](O)[C@@H](CO)O2)cc1F [FdUrd, 5-fluoro-2′-deoxyuridine] | – | – | – | – | – | – | – | – | – | – | – | – | – | – | – | – | more than a thousand-folds higher | >16 µM | >16 µM | 8 µM (≈ 1.97 µg/mL)
